Data as given in ChEMBL document CHEMBL1138861, “Design, synthesis, and biological evaluation of phenylamino-substituted 6,11-dihydro-dibenzo[b,e]oxepin-11-ones and dibenzo[a,d]cycloheptan-5-ones: novel p38 MAP kinase inhibitors” (J Med Chem, 2006).

How the values were obtained:
[1] = target: Mitogen-activated protein kinase 14 (Homo sapiens, UniProt Q16539)
CYP3A4 = CYP3A4 (Homo sapiens, UniProt P08684); assay: Inhibition of CYP3A4 at 10 uM; format: ADME
CYP2C19 = CYP2C19 (Homo sapiens, UniProt P33261); assay: Inhibition of CYP2C19 at 10 uM; format: ADME
CYP2D6 = CYP2D6 (Homo sapiens, UniProt P10635); assay: Inhibition of CYP2D6 at 10 uM; format: ADME
Chain of CYP2D6 (P10635 whole entry): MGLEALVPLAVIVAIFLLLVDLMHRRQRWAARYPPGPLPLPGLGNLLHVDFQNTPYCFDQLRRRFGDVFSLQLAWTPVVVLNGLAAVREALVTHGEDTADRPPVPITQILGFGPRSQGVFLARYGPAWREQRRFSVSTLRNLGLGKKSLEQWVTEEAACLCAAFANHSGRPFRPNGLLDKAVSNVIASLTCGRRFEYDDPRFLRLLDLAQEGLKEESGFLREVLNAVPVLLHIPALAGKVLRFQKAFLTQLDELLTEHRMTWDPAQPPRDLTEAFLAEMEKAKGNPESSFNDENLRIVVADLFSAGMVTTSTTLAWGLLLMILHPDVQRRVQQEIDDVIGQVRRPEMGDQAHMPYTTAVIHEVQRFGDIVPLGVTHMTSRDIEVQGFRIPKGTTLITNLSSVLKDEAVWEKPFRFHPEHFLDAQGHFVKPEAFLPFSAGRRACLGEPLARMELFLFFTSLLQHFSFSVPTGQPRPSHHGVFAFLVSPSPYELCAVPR

Chain of Mitogen-activated protein kinase 14 (Q16539 whole entry): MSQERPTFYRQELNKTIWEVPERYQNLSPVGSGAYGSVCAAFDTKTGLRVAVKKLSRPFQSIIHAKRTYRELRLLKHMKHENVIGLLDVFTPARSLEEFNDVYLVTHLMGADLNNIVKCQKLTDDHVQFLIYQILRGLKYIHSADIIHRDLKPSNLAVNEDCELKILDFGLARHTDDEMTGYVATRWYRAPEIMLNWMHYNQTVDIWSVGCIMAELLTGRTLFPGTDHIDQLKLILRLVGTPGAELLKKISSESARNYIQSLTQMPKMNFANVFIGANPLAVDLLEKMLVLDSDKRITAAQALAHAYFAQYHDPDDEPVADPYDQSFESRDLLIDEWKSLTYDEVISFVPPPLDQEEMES
Chain of CYP3A4 (P08684 whole entry): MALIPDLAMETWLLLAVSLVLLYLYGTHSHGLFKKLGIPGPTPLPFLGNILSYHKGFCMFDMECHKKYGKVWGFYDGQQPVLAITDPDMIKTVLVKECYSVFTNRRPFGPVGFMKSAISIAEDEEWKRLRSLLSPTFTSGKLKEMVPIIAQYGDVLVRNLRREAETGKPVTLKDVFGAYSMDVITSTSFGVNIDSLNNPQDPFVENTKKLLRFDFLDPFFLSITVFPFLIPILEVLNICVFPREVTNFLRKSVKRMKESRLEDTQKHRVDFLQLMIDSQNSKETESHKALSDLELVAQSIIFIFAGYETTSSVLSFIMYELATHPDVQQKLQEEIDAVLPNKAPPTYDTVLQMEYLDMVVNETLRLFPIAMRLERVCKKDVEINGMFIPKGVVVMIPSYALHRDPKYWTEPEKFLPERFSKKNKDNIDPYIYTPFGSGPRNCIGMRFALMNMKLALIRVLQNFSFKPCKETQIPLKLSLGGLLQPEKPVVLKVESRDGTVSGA
Chain of CYP2C19 (P33261 whole entry): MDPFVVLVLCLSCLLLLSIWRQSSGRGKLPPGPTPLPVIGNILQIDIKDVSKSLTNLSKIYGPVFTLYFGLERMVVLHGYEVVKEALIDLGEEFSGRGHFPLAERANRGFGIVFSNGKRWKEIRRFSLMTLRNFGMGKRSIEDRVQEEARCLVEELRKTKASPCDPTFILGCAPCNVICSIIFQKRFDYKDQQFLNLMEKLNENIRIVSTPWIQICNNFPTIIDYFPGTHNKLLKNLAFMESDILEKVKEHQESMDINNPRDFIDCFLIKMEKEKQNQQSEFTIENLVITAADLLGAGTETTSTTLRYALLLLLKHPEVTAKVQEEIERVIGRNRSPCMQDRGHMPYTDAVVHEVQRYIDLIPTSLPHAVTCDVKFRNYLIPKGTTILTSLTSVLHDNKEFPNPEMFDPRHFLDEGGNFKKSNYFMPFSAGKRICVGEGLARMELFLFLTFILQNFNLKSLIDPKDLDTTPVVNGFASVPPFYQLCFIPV

| IC50 [1] [nM] | Structure (SMILES) | other results |
| --- | --- | --- |
| 190 | Cc1ccccc1C(=O)c1ccc(Nc2ccccc2)cc1Cl |  |
| 3060 | Nc1ccccc1Nc1ccc2c(c1)COc1ccccc1C2=O |  |
| > 5000 | Nc1ccc(Nc2ccc3c(c2)OCc2ccccc2C3=O)c(N)c1 |  |
| 1170 | Nc1ccc(Nc2ccc3c(c2)CCc2ccccc2C3=O)cc1 |  |
| 1060 | Nc1ccccc1Nc1ccc2c(=O)c3ccccc3ccc2c1 |  |
| 196 | Nc1ccccc1Nc1ccc2c(c1)SCc1ccccc1C2=O |  |
| 239 | O=C1c2ccccc2COc2cc(Nc3ccc(F)cc3F)ccc21 |  |

Continued, molecule first:

| Structure (SMILES) | IC50 [1] [nM] | other results |
| --- | --- | --- |
| Nc1cc(F)ccc1Nc1ccc2c(c1)OCc1ccccc1C2=O | 38 |  |
| Nc1ccccc1Nc1ccc2c(c1)CCc1ccccc1C2=O |  | inhibition at 10 µM (CYP3A4): 70%; inhibition at 10 µM (CYP2C19): 53%; inhibition at 10 µM (CYP2D6): 42% |
| Nc1ccc(Nc2ccc3c(c2)OCc2ccccc2C3=O)c(F)c1 | 1320 |  |
| Nc1ccc(Nc2ccc3c(c2)OCc2ccccc2C3=O)cc1 | > 5000 |  |
| O=C1c2ccccc2COc2cc(Nc3ccc(Br)cc3Br)ccc21 | > 5000 |  |
| Nc1cccc(Nc2ccc3c(c2)OCc2ccccc2C3=O)c1 | 1220 |  |
| O=C1c2ccccc2COc2cc(Nc3ccc(Cl)cc3Cl)ccc21 | 3020 |  |
| C[S+]([O-])c1ccc(-c2nc(-c3ccncc3)c(-c3ccc(F)cc3)[nH]2)cc1 (centres undefined) [SB-203580] |  | inhibition at 10 µM (CYP3A4): 77%; inhibition at 10 µM (CYP2C19): 92%; inhibition at 10 µM (CYP2D6): 73% |
